Where two headings read alike, the source gives them in different places.
Key:
CC-SW-1 cell line = test: Cell TitreGlo cell viability, CC-SW-1 cholangiocarcinoma cells; assay type: cell-based, human; conditions: for IC50: Homo sapiens
Procedure: (§1) Various cholangiocarcinoma (CCA) cell lines were used for this drug screening.
(§2) For panobinostat as single substance treatment seven cholangiocarcinoma cell lines were used. Panobinostat was then tested in combination with 23 other drugs on four cholangiocarcinoma cell lines. A single concentration of the combination drug was added based on a previously determined IC20 value for the combination drug tested alone on each of the four cell lines.
(§3) The viability data for each plate were normalized to the average of eight replicates of DMSO at 0.1% and seven replicates of Benzethonium Chloride (BzCl) at 100 uM. BzCl serves as a cell killing control that accounts for background signal from dead cells in the CTG luminescence assay. Raw luminescence data were normalized according to the following equation: […]
(§4) The normalized data for each dose response curve were then fit using the function drm from the R package drc. This function uses a four parameter log-logistic curve to fit the dose response data, resulting in values for curve minimum, maximum, IC50, and slope. In the case where a log-logistic curve could not be fit to the data, a logistic curve was used instead.

HuCC-T1 cell line = test: Cell TitreGlo cell viability, HuCC-T1 cholangiocarcinoma cells; assay type: cell-based, human; conditions: for IC50: Homo sapiens, HuCCT-1
Procedure: as §1, §2, §3, §4

EGI-1 cell line = test: Cell TitreGlo cell viability, EGI-1 cholangiocarcinoma cells; assay type: cell-based, human
Procedure: as §1, §2, §3, §4

CC-LP-1 cell line = test: Cell TitreGlo cell viability, CC-LP-1 cholangiocarcinoma cells; assay type: cell-based; conditions: Homo sapiens, single substance treatment, cell viability 48 h post drug addition
Procedure: as §1
(§5) For panobinostat as single substance treatment seven cholangiocarcinoma cell lines were used. Panobinostat was then tested in combination with 23 other drugs on four cholangiocarcinoma cell lines. A single concentration of the combination drug was added based on a previously determined IC20 value for the combination drug tested alone on each of the four cell lines. The cell line TFK-1 was insensitive to some tested drugs.

TFK-1 cell line = test: Cell TitreGlo cell viability, TFK-1 cholangiocarcinoma cells; assay type: cell-based, human
Procedure: as §1, §2, §3, §4

KMBC cell line = test: Cell TitreGlo cell viability, KMBC cholangiocarcinoma cells; assay type: cell-based; conditions: single substance treatment, cell viability 48 h post drug addition
Procedure: as §1, §5

KMCH-1 cell line = test: Cell TitreGlo cell viability, KMCH-1 combined cholangio- and hepatocarcinoma cells; assay type: cell-based; conditions: single substance treatment, cell viability 48 h post drug addition
Procedure: as §1, §5

[1] = system: normal cholangiocytes, cell line H69 (CVCL_8121); conditions: read-out: H69 cell line Mono, panobinostat alone
Excerpt: The effects of various cytotoxic agents on the toxicity of panobinostat in normal cholangiocytes was examined. The cell line H69 (CVCL_8121) was used in experimental procedures described above to determine the IC50 value for panobinostat (the primary drug) on these cells when used in combination with cytotoxic agents (secondary drug) added to the cells at their IC20 concentrations.
The larger difference the more toxic the combination.

Cc1[nH]c2ccccc2c1CCNCc1ccc(/C=C/C(=O)NO)cc1 [Panobinostat, (E)-N-hydroxy-3-[4-[[2-(2-methyl-1H-indol-3-yl)ethylamino]methyl]phenyl]prop-2-enamide]
IC50 (CC-SW-1 cell line; panobinostat alone, read-out: CC-SW-1 cell line Mono): 0.0184 µM | IC50 (CC-SW-1 cell line; single substance treatment, CC-SW-1, cell viability 48 h post drug addition, read-out: IC50): 0.012 µM | Therapeutic index Mono (CC-SW-1 cell line; IC50 in H69 normal cells / IC50 in CC-SW-1, panobinostat alone): 3.1 | IC50 (HuCC-T1 cell line; panobinostat alone, read-out: HuCCT-1 cell line Mono): 0.0424 µM | IC50 (HuCC-T1 cell line; single substance treatment, HuCC-T1, cell viability 48 h post drug addition, read-out: IC50): 0.09 µM | Therapeutic index Mono (HuCC-T1 cell line; IC50 in H69 normal cells / IC50 in HuCCT-1, panobinostat alone): 0.9 | IC50 (EGI-1 cell line; Homo sapiens, EGI-1, panobinostat alone, read-out: EGI-1 cell line Mono): 0.0629 µM | Therapeutic index Mono (EGI-1 cell line; IC50 in H69 normal cells / IC50 in EGI-1, panobinostat alone): 0.9 | IC50 (EGI-1 cell line; single substance treatment, EGI-1, cell viability 48 h post drug addition, listed as panobinostat, read-out: IC50): 0.099 µM | IC50 (EGI-1 cell line; single substance treatment, EGI-1, cell viability 48 h post drug addition, read-out: IC50): 0.036 µM | IC50 (CC-LP-1 cell line): 0.081 µM | IC50 (TFK-1 cell line; Homo sapiens, 48 h, single substance treatment, TFK-1, cell viability 48 h post drug addition, read-out: IC50): 0.07 µM | IC50 (TFK-1 cell line; Homo sapiens, panobinostat alone, read-out: TFK-1 cell line Mono): 0.0518 µM | Therapeutic index Mono (TFK-1 cell line; IC50 in H69 normal cells / IC50 in TFK-1, panobinostat alone): 1.1 | IC50 (TFK-1 cell line; single substance treatment, TFK-1, cell viability 48 h post drug addition, read-out: IC50): 0.095 µM | IC50 (KMBC cell line): 0.088 µM | IC50 (KMCH-1 cell line): 0.099 µM | IC50 [1]: 0.0568 µM

Reference: patent publication US20220409582A1, “COMBINATION THERAPIES COMPRISING PANOBINOSTAT FOR THE TREATMENT OF CHOLANGIOCARCINOMA” (SEALD AS, priority 2019, published 2022)
